In US4159373A, “7-Acyl-3-(sulfonic acid and sulfamoyl substituted tetrazolyl thiomethyl) cephalosporins” (SmithKline Corporation, priority 1978, dated 1979):
Converted amounts (≈) assume the structure as drawn. Like-named read-outs stand apart in the source and are kept apart here.

Columns and labels:
Entero. cloacae HH 31254 = assay: MIC in vitro; format: cell-based; conditions: Enterobacter cloacae, HH31254, Table 1, read-out: MIC in vitro
Kleb. pneumo. 4200 = assay: In vivo mouse protection, Kleb. pneumo. 4200; conditions: sc
Kleb. pneumo. SK 1200 = assay: MIC in vitro; format: cell-based, Kleb. pneumoniae; conditions: Klebsiella pneumoniae
Experimental: (§1) The compounds of Formula I have exceptional antibacterial activity against both Gram-positive and Gram-negative organisms. Minimum inhibitory concentrations (MIC's) ranged from 0.2 to <200 μg./ml. in in vitro testing.

Kleb. pneumo. SK 4200 = assay: MIC in vitro; format: cell-based, Kleb. pneumoniae; conditions: Klebsiella pneumoniae
Experimental: as §1

S. villaluz = assay: MIC in vitro; format: cell-based; conditions: Table 1
Experimental: as §1

Proteus morgani 179 = assay: MIC in vitro; format: cell-based
Experimental: as §1

S. aureus SK 23390 = assay: MIC in vitro; format: cell-based; conditions: Staphylococcus aureus, SK23390, Table 1; S. aureus SK 23390; read-out: MIC in vitro
Experimental: as §1

Salmonella ATCC 12176 = assay: MIC in vitro; format: cell-based; conditions: Salmonella, ATCC12176, Table 1, read-out: MIC in vitro
Experimental: as §1

shigella HH 117 = assay: MIC in vitro; format: cell-based; conditions: HH117; Table 1; shigella HH 117; read-out: MIC in vitro
Experimental: as §1

S. aureus HH 127 = assay: MIC in vitro; format: cell-based; conditions: Staphylococcus aureus
Experimental: as §1

E. coli HH 33779 = assay: MIC in vitro; format: cell-based; conditions: Escherichia coli, HH33779, Table 1; E. coli HH 33779; read-out: MIC in vitro
Experimental: as §1

E. coli SK 12140 = assay: MIC in vitro; format: cell-based
Experimental: as §1

Strep. Faecalis HH 34358 = assay: MIC in vitro; format: cell-based; conditions: Enterococcus faecalis
Experimental: as §1

E. coli 12140 = assay: In vivo mouse protection, E. coli 12140; conditions: Escherichia coli, 12140, sc, s.c.
Serra. marc ATCC 13880 = assay: MIC in vitro; format: cell-based, Serratia marcescens; conditions: Serratia marcescens
Experimental: as §1

Psuedo. sp. HH 63 = assay: MIC in vitro; format: cell-based, Pseudo. aeruginosa
Experimental: as §1

[1] = test system: Entero. aerog. ATCC 13048; assay: MIC in vitro; format: cell-based, Enterobacter aerogenes; conditions: Klebsiella aerogenes
Experimental: as §1

Enterobacter cloacae 921 = assay: MIC in vitro; format: cell-based
E. coli 804 = assay: MIC in vitro; format: cell-based
Staph. aureus 674 = assay: MIC in vitro; format: cell-based
Pseudo. aeruginosa 647 = assay: MIC in vitro; format: cell-based
Kleb. pneumoniae 982 = assay: MIC in vitro; format: cell-based
Proteus mirabilis 444 = assay: MIC in vitro; format: cell-based
Staph. aureus 671 = assay: MIC in vitro; format: cell-based
[2] = Table 2, Kleb. pneumo. 4200, s.c., read-out: ED50 in vivo
[3] = Table 1, Kleb. pneumo. SK 1200, read-out: MIC in vitro
[4] = Table 1, Kleb. pneumo. SK 4200, read-out: MIC in vitro
[5] = Table 1, read-out: MIC in vitro
[6] = HH127, Table 1, S. aureus HH 127, read-out: MIC in vitro
[7] = Table 1, Strep. Faecalis HH 34358, read-out: MIC in vitro
[8] = Table 2, E. coli 12140, read-out: ED50 in vivo
[9] = ATCC13880, Table 1, Serra. marc ATCC 13880, read-out: MIC in vitro
[10] = Pseudomonas aeruginosa, Table 1, Psuedo. sp. HH 63, read-out: MIC in vitro
[11] = ATCC13048, Table 1, Entero. aerog. ATCC 13048, read-out: MIC in vitro
[12] = Example 54 table, read-out: MIC

## O=C(Cc1cccs1)NC1C(=O)N2C(C(=O)O)=C(CSc3nnnn3CCS(=O)(=O)O)CS[C@H]12 (stereo partly shown) [VI, 7-(2-Thienylacetamido)-3-[1-(2-sulfoethyl)tetrazol-5-ylthiomethyl]-3-cephem-4-carboxylic acid]
Entero. cloacae HH 31254
  MIC: 6.3 µg/mL (≈ 11.5 µM)
Kleb. pneumo. 4200; [2]
  ED50: 1.56 mg/kg
Kleb. pneumo. SK 1200; [3]
  MIC: 0.8 µg/mL (≈ 1.46 µM)
Kleb. pneumo. SK 4200; [4]
  MIC: 1.6 µg/mL (≈ 2.93 µM)
S. villaluz
  MIC: 3.1 µg/mL (≈ 5.67 µM)
Proteus morgani 179; [5]
  MIC: > 200 µg/mL
S. aureus SK 23390
  MIC: 0.8 µg/mL (≈ 1.46 µM)
Salmonella ATCC 12176
  MIC: 0.8 µg/mL (≈ 1.46 µM)
Shigella HH 117
  MIC: 3.1 µg/mL (≈ 5.67 µM)
S. aureus HH 127; [6]
  MIC: 1.6 µg/mL (≈ 2.93 µM)
E. coli HH 33779
  MIC: 12.5 µg/mL (≈ 22.9 µM)
E. coli SK 12140; Escherichia coli, SK12140, read-out: MIC in vitro, Table 1, E. coli SK 12140
  MIC: 3.1 µg/mL (≈ 5.67 µM)
Strep. Faecalis HH 34358; [7]
  MIC: 50 µg/mL (≈ 91.5 µM)
E. coli 12140; [8]
  ED50: 4.4 mg/kg
Serra. marc ATCC 13880; [9]
  MIC: > 200 µg/mL
Psuedo. sp. HH 63; [10]
  MIC: > 200 µg/mL
[1]; [11]
  MIC: 25 µg/mL (≈ 45.7 µM)

## Cc1nnc(SCC2=C(C(=O)O)N3C(=O)[C@@H](NC(=O)Cn4cnnn4)[C@H]3SC2)s1 [XIII, Cefazolin, reference compound]
Enterobacter cloacae 921; Enterobacter cloacae, 921, Example 54 table
  MIC: 25 µg/mL (≈ 55 µM)
Enterobacter cloacae 921; Enterobacter cloacae, 921, Example 55 table
  MIC: 6.3 µg/mL (≈ 13.9 µM)
E. coli 804; Escherichia coli, Example 54 table, read-out: MIC
  MIC: 100 µg/mL (≈ 220 µM)
E. coli 804; Example 55 table
  MIC: 100 µg/mL (≈ 220 µM)
Kleb. pneumo. 4200; Example 54, s.c., K. pneumo. SKF 4200, read-out: ED50
  ED50: 0.7 mg/kg
Kleb. pneumo. 4200; Example 55, s.c., K. pneumo. SK&F 4200, read-out: ED50
  ED50: 8.7 mg/kg
Kleb. pneumo. 4200; [2]
  ED50: 6.25 mg/kg
Kleb. pneumo. SK 1200; Example 54 table, Kleb. pneumoniae SK&F 1200, read-out: MIC
  MIC: 0.4 µg/mL (≈ 0.88 µM)
Kleb. pneumo. SK 1200; Example 55 table, Kleb. pneumoniae SK&F 1200, read-out: MIC
  MIC: 0.8 µg/mL (≈ 1.76 µM)
Kleb. pneumo. SK 1200; [3]
  MIC: 0.8 µg/mL (≈ 1.76 µM)
Kleb. pneumo. SK 4200; Example 54 table, Kleb. pneumoniae SK&F 4200, read-out: MIC
  MIC: 3.1 µg/mL (≈ 6.82 µM)
Kleb. pneumo. SK 4200; Example 55 table, Kleb. pneumoniae SK&F 4200, read-out: MIC
  MIC: 1.6 µg/mL (≈ 3.52 µM)
Kleb. pneumo. SK 4200; [4]
  MIC: 0.8 µg/mL (≈ 1.76 µM)
Staph. aureus 674; Staphylococcus aureus, 674, Example 54 table
  MIC: 0.4 µg/mL (≈ 0.88 µM)
Staph. aureus 674; Staphylococcus aureus, 674, Example 55 table
  MIC: 0.2 µg/mL (≈ 0.44 µM)
Pseudo. aeruginosa 647; Example 55 table
  MIC: > 100 µg/mL
Pseudo. aeruginosa 647; Pseudomonas aeruginosa, Example 54 table, read-out: MIC
  MIC: > 100 µg/mL
Proteus morgani 179; [12]
  MIC: > 100 µg/mL
Proteus morgani 179; Example 55 table, read-out: MIC
  MIC: > 100 µg/mL
Proteus morgani 179; [5]
  MIC: 200 µg/mL (≈ 440 µM)
S. aureus SK 23390
  MIC: 0.2 µg/mL (≈ 0.44 µM)
Salmonella ATCC 12176
  MIC: 0.8 µg/mL (≈ 1.76 µM)
S. aureus HH 127; HH127, Example 54 table, Staph. aureus HH 127
  MIC: 0.8 µg/mL (≈ 1.76 µM)
S. aureus HH 127; [6]
  MIC: 0.4 µg/mL (≈ 0.88 µM)
S. aureus HH 127; Example 55 table, Staph. aureus HH127, read-out: MIC
  MIC: 0.4 µg/mL (≈ 0.88 µM)
E. coli HH 33779
  MIC: 0.8 µg/mL (≈ 1.76 µM)
E. coli SK 12140; Escherichia coli, SK12140, Example 54 table, E. coli SK&F 12140, read-out: MIC
  MIC: 0.8 µg/mL (≈ 1.76 µM)
E. coli SK 12140; Escherichia coli, SK12140, Table 1, E. coli SK 12140, read-out: MIC in vitro
  MIC: 0.8 µg/mL (≈ 1.76 µM)
E. coli SK 12140; Example 55 table, E. coli SK&F 12140
  MIC: 0.8 µg/mL (≈ 1.76 µM)
Strep. Faecalis HH 34358; Example 54 table, Strep. faecalis HH 34358, read-out: MIC
  MIC: 25 µg/mL (≈ 55 µM)
Strep. Faecalis HH 34358; Example 55 table, Strep. faecalis HH 34358, read-out: MIC
  MIC: 12.5 µg/mL (≈ 27.5 µM)
Strep. Faecalis HH 34358; [7]
  MIC: 6.3 µg/mL (≈ 13.9 µM)
E. coli 12140; Example 54, E. coli SKF 12140, read-out: ED50
  ED50: 4.4 mg/kg
E. coli 12140; Example 55, E. coli SKF 12140, read-out: ED50
  ED50: 3.12 mg/kg
E. coli 12140; [8]
  ED50: 4 mg/kg
Serra. marc ATCC 13880; ATCC13880, Example 54 table, Serratia marcescens ATCC 13880, read-out: MIC
  MIC: > 100 µg/mL
Serra. marc ATCC 13880; ATCC13880, Example 55 table, Serratia marcescens ATCC 13880, read-out: MIC
  MIC: > 100 µg/mL
Serra. marc ATCC 13880; [9]
  MIC: 200 µg/mL (≈ 440 µM)
Kleb. pneumoniae 982; Example 55 table
  MIC: > 100 µg/mL
Kleb. pneumoniae 982; Klebsiella pneumoniae, Example 54 table, read-out: MIC
  MIC: > 100 µg/mL
Proteus mirabilis 444; [12]
  MIC: 3.1 µg/mL (≈ 6.82 µM)
Proteus mirabilis 444; Example 55 table
  MIC: 3.1 µg/mL (≈ 6.82 µM)
Psuedo. sp. HH 63; Example 55 table, Pseudo. aeruginosa HH63
  MIC: > 100 µg/mL
Psuedo. sp. HH 63; Pseudomonas aeruginosa, Example 54 table, Pseudo. aeruginosa HH 63, read-out: MIC
  MIC: > 100 µg/mL
Psuedo. sp. HH 63; [10]
  MIC: > 200 µg/mL
[1]; ATCC13048, Example 54 table, Enterobacter aerogenes 13048, read-out: MIC
  MIC: 3.1 µg/mL (≈ 6.82 µM)
[1]; ATCC13048, Example 55 table, Enterobacter aerogenes 13048, read-out: MIC
  MIC: 3.1 µg/mL (≈ 6.82 µM)
[1]; [11]
  MIC: 1.6 µg/mL (≈ 3.52 µM)
Staph. aureus 671; Staphylococcus aureus, 671, Example 55 table
  MIC: 12.5 µg/mL (≈ 27.5 µM)
Staph. aureus 671; Staphylococcus aureus, Example 54 table
  MIC: 0.8 µg/mL (≈ 1.76 µM)
